Experimental data published in US6872541B2, “Method and compositions for analysis of pentraxin receptors as indicators of disease” (Coulter International Corp., priority 2001, dated 2005).
Where two headings read alike, the source gives them in different places.

Experiments:
THP-1 cells [1] = test: inhibition of the binding of bCRP to THP-1 cells; design: species or system human; settings: for effect on binding of bCRP to THP-1 cells: washed assay, 5 mM EDTA in the primary incubation, PC inclusion or exclusion from the reaction mixture
Text: Staining proceeded using the previously determined optimal non-washed conditions. […] All other staining conditions were as previously described using bHSA as the control.

[2] = test system: peripheral blood monocytes; test: inhibition of bCRP binding to peripheral blood monocytes; settings: added before staining: 50 μgs CRP, 50 μgs SAP, 10 mM EDTA, 100 μgs PC, human IgG
Description: (§1) Normal peripheral blood and second sample peripheral blood samples were drawn into EDTA containing tubes, unless noted, and stored at room temperature. Blood was stained within 10 hours of collection. […] In addition the removal of the plasma and red cells allowed calcium to be incorporated into the buffer system without subsequent clotting. Lysis was accomplished either by adding a volume of 3 mL of ammonium chloride (Sigma) containing EDTA (Sigma) solution to each 100 μL whole blood for 10 minutes at room temperature or by using the automated T-QPrep Workstation with the ImmunoPrep Reagent System (Coulter Corporation). The ImmunoPrep Reagent System consists of an acid lyse, followed by neutralization and fixation. The lysed blood was centrifuged, the supernatant decanted and the remaining white cell pellet resuspended in 100 μL 0.01M HEPES (Sigma)—0.15M sodium chloride containing 2% Fetal Calf Serum and 2 mM calcium chloride (Sigma), pH 7.4 (HSFC). […] At the end of this time SA-DTAF at a 1:500 dilution (3.6 μg) and 10-20 μL of the appropriate antibody or isotype combination was added for an additional 15 minutes on ice. Cells were then washed with 3 mL HSFC, centrifuged and resuspended to 1 mL in HSFC (0.3% paraformaldehyde was added to ammonium chloride-lysed cells). Stained cells were kept on ice and analyzed within the hour.

[3] = target: CRP receptor (pentraxin-binding moiety) on human monocytes and myelomonocytic cell lines (human); test: inhibition of bCRP (about 1 µg/mL) binding to THP-1 cells, flow cytometry, non-washed assay
PMN = settings: cited from earlier work
monocytes = settings: cited from earlier work
lymphocytes = settings: cited from earlier work
THP-1 cells [4] = test system: THP-1 cells
Description: (§5) After 30 minutes on ice the exposed cells were either washed with 3 mL cold HFCS, centrifuged at 500×g for 3 minutes and resuspended in 100 μL cold HSFC, or left alone to compare washed and non-washed systems. Freshly diluted SA-DTAF in HSFC, 100 μL (9 μg SA-DTAF), was then added to the tubes and incubation proceeded for another 15 minutes on ice protected from light. The stained cells were washed using 3 mL cold HSFC, centrifuged at 500×g for 3 minutes and resuspended in 1 mL cold HSFC containing 0.3% paraformaldehyde (Sigma). Flow cytometric analysis was performed immediately.
(§6) The labeling reagent, SA-DTAF, was kept at a constant 1:200 dilution.
(§7) Target mean channels previously determined for cell lines stained with mouse IgG1-FITC were used to maintain consistency of values. The same fluorescent settings for FITC emission (LFL1) were used for all cell lines to enable direct comparison of median fluorescent intensities. […] Since cell lines consist of a relatively uniform population of cells, a Relative Fluorescent Index (RFI) comparing the level of fluorescence to the negative control was used as a more accurate representation of binding levels. The median value for the peak fluorescence (MdX) was used in place of the mean fluorescence intensity so that any skewed population shifts would be captured. […]

HL-60 cells = test: flow cytometric ligand binding assay of bCRP:SA-DTAF on untreated, DMSO- or PMA-induced cells; design: species or system human
Description: (§2) Flow cytometric analysis was performed immediately.
HL-60 was induced towards either the granulocyte or monocyte pathway with DMSO or phorbol-12-myristate-13-acetate (PMA), respectively. To induce the myelocyte differentiation pathway of HL-60 cells into mature myelocytes or monocytes, a concentration of 1.2% DMSO (Baxter Research, Midvale, Utah) included in the media was added to 2.5×10^5 cells/mL for 6 to 14 days. Monocyte differentiation of HL60 cells was promoted by exposing 5×10^5 cells/mL to 16 nM PMA for 48-72 hours prior to harvest. Untreated cells were always harvested along with the treated cells on the day of testing. A control using the same concentration of PMA dissolution media (DMSO) was also monitored. Viability of cells was determined by trypan blue exclusion and was always greater than 95% except for PMA treated cells that consistently were at 84% due to removal of the adherent cells from the flask via scraping. Prior to staining, the cells were washed with 10 mM HEPES, 150 mM sodium chloride buffer, pH 7.4 containing 0.01% sodium azide, 2% heat-inactivated fetal calf serum and 2 mM calcium chloride (HSFC) and resuspended to 1×10^7 cells/mL.

[5] = test system: peripheral blood monocytes; test: flow cytometric binding of bCRP:SA-DTAF to peripheral blood monocytes; design: species or system human
Description: (§3) Blood was stained within 10 hours of collection.
This concentration was used for all subsequent staining. Freshly drawn blood was evaluated within 30 to 60 minutes of collection and examined with specific markers identifying cell populations to ensure that the receptor binding pattern was similar to that obtained up to 10 hours later.
To ensure that enough monocytes were collected for the analysis stop counts were set to collect at least 1000 monocyte events based on forward and side scatter parameters.
Two individual donors were evaluated each day. The concentration of SA-DTAF was kept constant at a 1:500 dilution in HSFC (3.6 μgs). Peripheral blood monocyte binding was used to determine the optimal concentration. The percent positive values were expressed relative to the 2% cursor placed on the same population stained with the bHSA negative control. The choice of a 2% negative cursor instead of the RFI was made since a subset population was suspected due to the appearance of both a positive and negative stained monocyte population.
Single color, two or three-color staining was used along with monocyte forward and side scatter parameters to enumerate the percentage of positively stained cells. A negative staining control, bHSA:SA-DTAF was always run to establish the negative cursor placement. […] The samples were then evaluated for any differences in result due to gender, ethnic origin or age. […] No significant pattern or correlation was observed between the ages of 24 to 65 years and the binding of CRP to monocytes.

MOLT-4 cells = settings: washed assay
Description: as §5, §6, §7

NK cells (CD56+CD16+) = test: three color flow cytometric analysis of bCRP binding in fresh peripheral blood; design: species or system human; settings: lymphocyte scatter
Description: as §3

[6] = test system: T cell populations (CD4+ or CD8+); settings: lymphocyte scatter
Description: as §1, with “Cells were then washed with 3 mL HSFC, centrifuged and resuspended to 1 mL in HSFC (0.3% paraformaldehyde was added to ammonium chloride-lysed cells).” left out, “hour. […]” for “hour.”
(§4) A total of six different normal blood samples were drawn, three individual donors on two separate occasions, and evaluated within 30-60 minutes of collection. […]

[7] = test system: Granulocytes (CD13+ or CD16+); settings: gated by scatter and CD13+ or CD16+
Description: as §1, with “Cells were then washed with 3 mL HSFC, centrifuged and resuspended to 1 mL in HSFC (0.3% paraformaldehyde was added to ammonium chloride-lysed cells).” left out, “hour. […]” for “hour.”
as §4

Raji cells = test: flow cytometric ligand binding assay of bCRP:SA-DTAF on cell lines; design: species or system human
Description: as §2

KG-1a cells = test: as above; design: species or system human; settings: washed assay
Description: as §2

U937 cells = test: as above; design: species or system human; settings: washed assay
Description: as §2

Daudi cells = test: as above; design: species or system human; settings: washed assay
Description: as §2

[8] = target: CRP receptor (pentraxin-binding moiety) on human monocytes and myelomonocytic cell lines (human); test: 50 µgs purified human SAP added before bCRP staining of peripheral blood monocytes, flow cytometry
[9] = target: isolated human peripheral blood monocytes; settings: requirement for calcium, optimal pH 7.4; read-out: dissociation constant; cited from earlier work
[10] = target: CRP receptor (pentraxin-binding moiety) on human monocytes and myelomonocytic cell lines (human); test: 50 µgs purified CRP added before bCRP staining of peripheral blood monocytes, flow cytometry

O=C(O)CN(CCN(CC(=O)O)CC(=O)O)CC(=O)O [EDTA, reference compound]
effect on binding of bCRP to THP-1 cells (THP-1 cells [1]): abolished
inhibition of bCRP binding to peripheral blood monocytes [2]: ~98%

C[N+](C)(C)CCOP(=O)(O)O [PC, phosphorylcholine, reference compound]
effect on binding of bCRP to THP-1 cells (THP-1 cells [1]): no significant difference
inhibition of bCRP binding to peripheral blood monocytes [2]: ~1%

CRP fragment 174-185: defined fragment of CRP, amino acid residues 174-185 of SEQ ID NO: 2 (Sigma) (IYLGGPFSPNVL; human CRP)
inhibition of bCRP binding to THP-1 cells (in words) (THP-1 cells [1]; non-washed assay, fragment 174-185 at 100 μgs (˜128 M solution), not repeated, other fragments up to 200 μgs): appeared to suppress the reaction

CRP: purified human C-reactive protein, pentameric pentraxin of 206 amino acid subunits (SEQ ID NO: 2), used unlabeled as inhibitor
point at which 50% of the binding was inhibited (amount) (THP-1 cells [1]; non-washed assay, bCRP approximately 1 μg/mL): 0.72 μgs
inhibition of bCRP binding to peripheral blood monocytes [2]: ~86%

Limulus CRP (from UniProt P06205 25-242) (ligand)
IC50 [3]: 0.0087 nM

aggregated CRP: aggregated CRP of a prior report (Zeller et al., 1986)
percent of cells binding (PMN; PMN stimulated with PMA): 93%
percent of cells binding (PMN; resting PMN): approximately 36%
percent of cells binding (monocytes; monocytes): 70%
percent of cells binding (lymphocytes): 8%

bCRP: purified human C-reactive protein labeled with biotin, detected with streptavidin conjugated fluorescein derivative (SA-DTAF)
RFI (THP-1 cells [4]; THP-1 run at the same time as positive control for the HL-60 induction experiment): 25.1
RFI (Relative Fluorescent Index, bCRP MdX / bHSA MdX) (THP-1 cells [4]; washed assay, THP-1): 14.5
RFI (HL-60 cells; CTL: HL-60 control for PMA-treated cells (same dilution of DMSO as PMA solvent)): 0.7
RFI (HL-60 cells; DMSO-treated HL-60): 1.0
RFI (HL-60 cells; HL-60 treated with PMA, 48 hours (PMA-48)): 1.2
RFI (HL-60 cells; HL-60 treated with PMA, 72 hours (PMA-72)): 1.5
RFI (HL-60 cells; untreated HL60): 0.6
binding to cells (HL-60 cells; untreated or DMSO-treated HL-60 cells, washed and no-wash systems): negative
average percent of monocytes binding (monocytes; other reports): 67±12%
binding of bCRP ([5]; monocyte subset, dual CD14+CD16+): bound very little bCRP
binding of bCRP vs negative bHSA control ([5]; monocytes selected by scatter and CD13, CD14 or CD33): definite fluorescent signal above that of the negative control
normal range of CRP binding by monocytes ([5]; normal donors): 49-90%
percentage of binding (monocytes) ([5]; one-step bCRP:SA-DTAF complex): 84.6%
average percent positive values of bCRP binding, monocytes gated by light scatter ([5]; six freshly drawn normal donors, 30-60 minutes after collection): approximately 70%
percentage of binding (monocytes) ([5]; two-step method with wash after primary incubation): 85.8%
RFI (Relative Fluorescent Index, bCRP MdX / bHSA MdX) (MOLT-4 cells): under 0.9
binding of bCRP vs negative bHSA control (NK cells (CD56+CD16+)): no binding of bCRP above that of the negative control
binding of bCRP vs negative bHSA control [6]: no binding of bCRP above that of the negative control
binding of bCRP vs negative bHSA control [7]: no binding of bCRP above that of the negative control
binding (in words) (Raji cells; B cell line Raji): No binding
RFI (Relative Fluorescent Index, bCRP MdX / bHSA MdX) (Raji cells; washed assay, Raji): under 0.9
RFI (Relative Fluorescent Index, bCRP MdX / bHSA MdX) (KG-1a cells): 1.2
RFI (Relative Fluorescent Index, bCRP MdX / bHSA MdX) (U937 cells): 1.3
RFI (Relative Fluorescent Index, bCRP MdX / bHSA MdX) (Daudi cells): under 0.9

human SAP: another pentraxin, human Serum Amyloid P, >99% purity
inhibition of bCRP binding to peripheral blood monocytes [2]: ~77%

human Serum Amyloid P (from UniProt P02743 20-223) (ligand)
percent inhibition [8]: 77%
IC50 [3]: 0.15 nM

radiolabeled CRP: radiolabeled CRP of a prior report (Ballou et al., 1989)
Kd [9]: ~100 nM

B1: purified human C-reactive protein (ligand)
chain: QTDMSRKAFVFPKESDTSYVSLKAPLTKPLKAFTVCLHFYTELSSTRGYSIFSYATKRQDNEILIFWSKDIGYSFTVGGSEILFEVPEVTVAPVHICTSWESASGIVEFWVDGKPRVRKSLKKGYTVGAEASIILGQEQDSFGGNFEGSQSLVGDIGNVNMWDFVLSPDEINTIYLGGPFSPNVLNWRALKYEVQGEVFTKPQLWP
percent inhibition [10]: 86%
